Data published in patent US6593462B2, “Purified β1,2-xylosyltransferase and uses thereof” (priority 1997, dated 2003).
One block for each compound: values may come before it.

Tests used:
β1,2-xylosyltransferase [1] = test: Xylosyltransferase activity assay: transfer of 3H-xylose from UDP-[3H]xylose to oligosaccharide acceptor; type: biochemical, soybean; details: for Effect of cation added to the purified enzyme (in words) / Stimulation of enzyme activity: 1 mM; for Stimulation of enzyme activity: enzyme dialyzed in the presence of EDTA
Method: Reaction mixtures for the assay of β1,2-xylosyltransferase contained the following components in a final volume of 25 μl: 100 mM MES buffer, pH 7.0, 10 mM MnCl2, 0.2% Triton X-100, 5 mM ATP, 0.2 mM UDP-[^3H]xylose (15,000 cpm), and 4 nmol of oligosaccharide acceptor (usually GlcNAc2-Man3-GlcNAc2-tyrosinamide; see structure 4 of FIG. 6, or the asialo-agalacto-oligosaccharide from transferrin). The reaction was started by the addition of 5 μl of the enzyme solution, and incubations were usually at 37° C. for 1 hour. The reaction was stopped by the addition of 100 μl of 1% acetic acid, and the reaction mixtures were chromatographed on a column of Biogel P-4 prepared by placing 8 ml of gel into a 10 ml pipette. The columns were equilibrated with 1% acetic acid, and the product was separated from substrates by elution with 1% acetic acid containing 0.2 M NaCl.
When more purified enzyme preparations were used in the assays, the radiolabeled product could be separated from the radioactive substrate by ion-exchange chromatography on an Amberlite column (or a column of Dowex-1-Cl^−) contained in a Pasteur pipette. […] Thus the wash can be counted as a measure of radioactive xylose transferred to oligosaccharide. In these assays, it is important to be certain that the enzyme preparation is free of degradative enzymes that cleave UDP-xylose to free xylose.

β1,2-xylosyltransferase [2] = test: Specificity of nucleoside diphosphate sugar donor for xylosyltransferase; type: biochemical, soybean; details: radioactive sugar nucleotide 20,000 cpm, 200 μM, asialo-agalactotransferrin glycopeptide acceptor, 1 hour at 37°; for cpm incorporated into oligosaccharide, Purified Enzyme: about 20 ng protein
Method: The substrate specificity of the xylosyltransferase for the nucleoside diphosphate sugar donor was also examined, using a variety of radiolabeled sugar nucleotides, as presented in Table 4. Each of these substrates was adjusted to have the same specific activity, and they were compared to each other at that activity.
Enzyme (particulate fraction or purified xylosyltransferase (about 20 ng protein) from UDP-hexanolamine-Sepharose) was incubated with radioactive sugar nucleotide (20,000 cpm; 200 μM) and asialo-agalactotransferrin glycopeptide for 1 hour at 37°. The reaction mixture was then separated on a Biogel P-4 column and radioactivity in oligasaccharide was determined.

[3] = tested on: β1,2-xylosyltransferase (56 and 59 kDa bands); test: Photoaffinity labeling of xylosyltransferase with N3-UDP[32P]-xylose; type: binding, soybean
Method: In FIG. 3B, effects of various amounts of acceptor oligosaccharides on labeling with UDP-xylose probe are shown.
In order to determine which band was really the xylosyltransferase, the enzyme fraction from UDP-hexanolamine-Sepharose was incubated with azido-UDP[^32P]-xylose, and after 30 sec., the mixture was exposed to UV light to activate the azido group.
Thus, lane 1 is without oligosaccharide acceptor while lanes 2-5 are with 4, 10, 30 and 80 μM oligosaccharide 4 and lanes 6-9 with oligoscacharide 10.

β1,2-xylosyltransferase [4] = test: Solubilization of xylosyltransferase from microsomes by detergents; type: biochemical, soybean; details: for Xylose Transferred to Acceptor (cpm), High Speed Supernatant / Xylose Transferred to Acceptor (cpm), Particulate Suspension: protein 10 mg/ml
Method: In order to purify this glycosyltransferase, it was necessary to solubilize the enzyme from the microsomes. A variety of detergents were tested at different concentrations for their ability to solubilize the xylosyltransferase and maintain its stability. […] The enzymatic activity in the supernatant liquid was then measured in the usual transferase assay.

fucosyltransferase = test: Fucose incorporation from GDP-[3H]fucose into oligosaccharide 4 by soybean particulate enzyme; type: biochemical; details: oligosaccharide 4 acceptor
Method: Based on the substrate specificity for oligosaccharide acceptor, it would appear that xylose is added after the action of GlcNAc transferase I and mannosidase II but before the addition of galactose residues to the terminal GlcNAc units. Most of these types of N-linked oligosaccharides also contain an […] L-fucose on the innermost GlcNAc unit. In order to determine whether addition of xylose affects fucose transfer to the oligosaccharide, or vice versa, assays were prepared that contained oligosaccharide 4 as acceptor, radiolabeled nucleoside diphosphate sugar (i.e., either UDP-[^3H]xylose or GDP-[^3H]fucose) and either unlabeled UDP-xylose or unlabeled GDP-fucose. Thus, when the incubation contained radioactive UDP-xylose, various amounts of unlabeled GDP-fucose were added to determine whether addition of fucose would stimulate or inhibit xylose transfer. Likewise, when labeled GDP-fucose was used, the incubations contained unlabeled UDP-xylose. These incubations were done with the soybean particulate enzyme, so that both fucosyltransferase and xylosyltransferase were present.

β1,2-xylosyltransferase [5] = test: Xylosyltransferase activity assay: transfer of 3H-xylose from UDP-[3H]xylose to oligosaccharide acceptor; type: biochemical, soybean; details: donor substrate; 5 nmoles of oligosaccharide 4; FIG. 9
[6] = oligosaccharide as acceptor, gel filtration on Biogel P-4

Compound: [Fe+3] [Fe^+++]
Effect of cation added to the purified enzyme (in words) (β1,2-xylosyltransferase [1]): strongly inhibitory

Compound: Nc1nc2c(ncn2[C@@H]2O[C@H](COP(=O)(O)OP(=O)(O)O[C@H]3O[C@H](CO)[C@@H](O)[C@H](O)[C@@H]3O)[C@@H](O)[C@H]2O)c(=O)[nH]1 [GDP-mannose]
cpm incorporated into oligosaccharide, Particulate Enzyme (β1,2-xylosyltransferase [2]): 75 cpm | cpm incorporated into oligosaccharide, Purified Enzyme (β1,2-xylosyltransferase [2]): 59 cpm

Compound: O=C(O)CN(CCN(CC(=O)O)CC(=O)O)CC(=O)O [EDTA]
Effect of EDTA on purified xylosyltransferase (β1,2-xylosyltransferase [1]; addition of, or dialysis against): not inhibited

Compound: [Cl-].[Cl-].[Mg+2] [MgCl2]
Effect of cation added to the purified enzyme (in words) (β1,2-xylosyltransferase [1]): slight stimulation | Stimulation of enzyme activity (β1,2-xylosyltransferase [1]): 11%

Compound: [Ca+2].[Cl-].[Cl-] [CaCl2]
Stimulation of enzyme activity (β1,2-xylosyltransferase [1]): 15%

Compound: [Ca+2] [Ca^++]
Effect of cation added to the purified enzyme (in words) (β1,2-xylosyltransferase [1]): no stimulation

Compound: GlcNAc2Man3(GlcNAc)2-T [Oligosaccharide 4]
Ability to serve as acceptor of xylose (in words) (β1,2-xylosyltransferase [1]): best acceptors | Activity (cpm xylose transferred) with Particulate Enzyme (β1,2-xylosyltransferase [1]; [6]): 3578 cpm | Activity (cpm xylose transferred) with Purified Enzyme (β1,2-xylosyltransferase [1]; [6]): 3648 cpm | Km (β1,2-xylosyltransferase [1]; purified enzyme, FIG. 8): ~75 µM | Effect of oligosaccharide on binding of UDP-xylose probe ([3]; FIG. 3A lanes 12 and 13): greatly stimulated binding of UDP-xylose

Compound: [Hg+2] [Hg^++]
Effect of cation added to the purified enzyme (in words) (β1,2-xylosyltransferase [1]): strongly inhibitory

Compound: C[C@@H]1O[C@H](OP(=O)(O)OP(=O)(O)OC[C@H]2O[C@@H](n3cnc4c(=O)[nH]c(N)nc43)[C@H](O)[C@@H]2O)[C@@H](O)[C@H](O)[C@@H]1O [GDP-fucose]
Effect of unlabeled GDP-fucose on xylose incorporation (β1,2-xylosyltransferase [1]; high concentrations, oligosaccharide 4 acceptor, particulate enzyme): some inhibition of xylose incorporation | cpm incorporated into oligosaccharide, Particulate Enzyme (β1,2-xylosyltransferase [2]): 1033 cpm | cpm incorporated into oligosaccharide, Purified Enzyme (β1,2-xylosyltransferase [2]): 142 cpm

Second part, led by results:

Effectiveness as xylose acceptor as compared to oligosaccharide 4 (β1,2-xylosyltransferase [1]): about 50% | Activity (cpm xylose transferred) with Purified Enzyme (β1,2-xylosyltransferase [1]; [6]): 69 cpm
Compound: GlcNAc-Man3-5′-isomer [Oligosaccharide 8]

Xylose Transferred to Acceptor (cpm), High Speed Supernatant (β1,2-xylosyltransferase [4]; detergent 1%): 1574 cpm | Xylose Transferred to Acceptor (cpm), Particulate Suspension (β1,2-xylosyltransferase [4]; detergent 1%): 1570 cpm
Compound: C[C@H](CCC(=O)NCCS(=O)(=O)O)[C@H]1CC[C@H]2[C@@H]3[C@H](O)C[C@@H]4C[C@H](O)CC[C@]4(C)[C@H]3C[C@H](O)[C@]12C [Taurocholoate]

Enzymatic activity recovered in the supernatant liquid (β1,2-xylosyltransferase [4]; 1% or 2% detergent in Buffer B): at least 80% | Xylose Transferred to Acceptor (cpm), High Speed Supernatant (β1,2-xylosyltransferase [4]; detergent 0.5%): 1189 cpm | Xylose Transferred to Acceptor (cpm), Particulate Suspension (β1,2-xylosyltransferase [4]; detergent 0.5%): 2481 cpm | Xylose Transferred to Acceptor (cpm), High Speed Supernatant (β1,2-xylosyltransferase [4]; detergent 1%): 2188 cpm | Xylose Transferred to Acceptor (cpm), Particulate Suspension (β1,2-xylosyltransferase [4]; detergent 1%): 2689 cpm | Xylose Transferred to Acceptor (cpm), High Speed Supernatant (β1,2-xylosyltransferase [4]; detergent 2%): 2297 cpm | Xylose Transferred to Acceptor (cpm), Particulate Suspension (β1,2-xylosyltransferase [4]; detergent 2%): 2695 cpm
Compound: Triton x-100

cpm incorporated into oligosaccharide, Particulate Enzyme (β1,2-xylosyltransferase [2]): 72 cpm | cpm incorporated into oligosaccharide, Purified Enzyme (β1,2-xylosyltransferase [2]): 63 cpm
Compound: CC(=O)N[C@H]1[C@@H](OP(=O)(O)OP(=O)(O)OC[C@H]2O[C@@H](n3ccc(=O)[nH]c3=O)[C@H](O)[C@@H]2O)O[C@H](CO)[C@H](O)[C@@H]1O [UDP-GalNAc]

cpm incorporated into oligosaccharide, Particulate Enzyme (β1,2-xylosyltransferase [2]): 1479 cpm | cpm incorporated into oligosaccharide, Purified Enzyme (β1,2-xylosyltransferase [2]): 2597 cpm | Effect of unlabeled nucleoside diphosphate sugar on radiolabel in the 56 and 59 kDa bands ([3]; 10 and 100 μM (b69 prints 0.1, 1 and 10 μM for UDP-xylose)): greatly diminished | Km (β1,2-xylosyltransferase [5]): ~0.1 µM
Compound: O=c1ccn([C@@H]2O[C@H](COP(=O)(O)OP(=O)(O)O[C@H]3OC[C@@H](O)[C@H](O)[C@H]3O)[C@@H](O)[C@H]2O)c(=O)[nH]1 [UDP-xylose]
Effect of unlabeled UDP-xylose on incorporation of fucose into oligosaccharide (fucosyltransferase): did not affect the incorporation of fucose
